Test results as given in publication PMC8333062, “Chemical tools for epichaperome-mediated interactome dysfunctions of the central nervous system” (Nature Communications, 2021).
Several values for one entry are separate records, joined by “and”; a condition that tells them apart may be missing. Equal values may be shown once.

What was measured:
[1] = tested on: MDA-MB-468 cells; test: Cell viability, ATP levels 72 h; type: cell-based, human; details: control MDA-MB-468 of Fig. 6f; mean
[2] = Chronic administration toxicity; type: in vivo, B6C3F1 mice; details: 75 mg/kg IV 3 times per week, approximately 24 weeks
[3] = tested on: GBM#8; test: Survival studies in mice; type: in vivo, mouse; details: 50 mg kg^−1 iv, three times per week, n=7
Excerpt: (§1) Survival of the animals was followed until the mice became morbid (physical and/or neurological symptoms), at which point, the animals were killed. Typically, mice became symptomatic several weeks to a few months after GSC implantation. Log-rank tests were used to compare the distribution of time to killing across groups and Kaplan–Meier curves were produced.

[4] = tested on: GBM#5; test: Survival studies in mice; type: in vivo, mouse; details: 50 mg kg^−1 iv, three times per week, n=7
Excerpt: as §1

[5] = tested on: GBM#7; test: Survival studies in mice; type: in vivo, mouse; details: 50 mg kg^−1 iv, three times per week, n=7
Excerpt: as §1

[6] = biological target: T1, CYP3A4 (Homo sapiens, UniProt P08684); test: Cytochrome P450 profiling, troleandomycin; type: in vitro ADME; details: for % PU-HZ151 remaining: Troleandomycin
T1 construct: tissue Life Technologies HMMCPL; host or cells: human liver microsomes
T1 sequence (P08684 whole entry): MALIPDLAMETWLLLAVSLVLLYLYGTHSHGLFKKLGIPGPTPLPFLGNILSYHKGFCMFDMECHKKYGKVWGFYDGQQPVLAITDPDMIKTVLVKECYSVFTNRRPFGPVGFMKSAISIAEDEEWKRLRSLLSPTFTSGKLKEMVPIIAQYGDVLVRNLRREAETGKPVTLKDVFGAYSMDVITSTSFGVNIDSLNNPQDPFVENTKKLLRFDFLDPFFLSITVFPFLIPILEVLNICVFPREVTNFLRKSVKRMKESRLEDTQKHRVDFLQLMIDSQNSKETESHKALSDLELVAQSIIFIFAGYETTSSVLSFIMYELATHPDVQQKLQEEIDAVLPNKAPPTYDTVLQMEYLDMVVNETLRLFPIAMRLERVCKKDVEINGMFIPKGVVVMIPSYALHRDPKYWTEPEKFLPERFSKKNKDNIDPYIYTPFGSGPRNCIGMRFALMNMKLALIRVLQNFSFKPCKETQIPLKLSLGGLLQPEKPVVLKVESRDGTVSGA
Procedure: (§2) To identify cytochrome P450 enzymes responsible for PU-HZ151’s metabolism in human liver microsomes the following procedure was followed. Phosphate buffer (100 mM, pH 7.4) was prepared monthly and stored at 4 °C. Frozen stock solutions of human liver microsomes (Life Technologies; Cat# HMMCPL) were used once after thawing and were not refrozen. NADPH stock solution (50 mM) in distilled water was prepared fresh daily. […] The stock solutions of these P450 inhibitors were prepared in DMSO. […] The concentration of the chemical inhibitors used in the assay were furafylline (10 μM), tranylcypromine (2 μM), ketoconazole (1 μM), troleandomycin (20 μM), orphenadrine (50 μM), montelukast (3 μM), sulfaphenazole (10 μM), benzylnirvanol (1 μM), quinidine (1 μM), and 1-aminobenzotriazole (1 mM) for all the P450 enzymes. Timing of the reactions was started following the addition of NADPH/magnesium chloride mix and PU-HZ151. Time-dependent chemical inhibitors (furafylline, troleandomycin, orphenadrine, and 1-aminobenzotriazole) were preincubated with human microsomes in the presence of NADPH and magnesium chloride for 15 min before the addition of PU-HZ151 and timing of reactions was started after addition of PU-HZ151. […] Following brief vortexing and centrifugation, a 200 µL aliquot of the supernatant was transferred to a tube, and 10 µL of haloperidol (1 µg mL^−1) as internal standard was added. Following brief vortexing and centrifugation, 50 µL of supernatant was added to a 96-well plate for subsequent LC-MS/MS analysis. PU-HZ151 was similarly tested as above in the absence of CYP inhibitors for comparative purposes. All samples were assayed in duplicate. […] This was similarly performed for incubations of PU-HZ151 performed in the absence of CYP inhibitor.

[7] = biological target: T2, CYP1A2 (Homo sapiens, UniProt P05177); test: Cytochrome P450 profiling, furafylline; type: in vitro ADME; details: for % PU-HZ151 remaining: Furafylline
T2 sequence (P05177 1-516): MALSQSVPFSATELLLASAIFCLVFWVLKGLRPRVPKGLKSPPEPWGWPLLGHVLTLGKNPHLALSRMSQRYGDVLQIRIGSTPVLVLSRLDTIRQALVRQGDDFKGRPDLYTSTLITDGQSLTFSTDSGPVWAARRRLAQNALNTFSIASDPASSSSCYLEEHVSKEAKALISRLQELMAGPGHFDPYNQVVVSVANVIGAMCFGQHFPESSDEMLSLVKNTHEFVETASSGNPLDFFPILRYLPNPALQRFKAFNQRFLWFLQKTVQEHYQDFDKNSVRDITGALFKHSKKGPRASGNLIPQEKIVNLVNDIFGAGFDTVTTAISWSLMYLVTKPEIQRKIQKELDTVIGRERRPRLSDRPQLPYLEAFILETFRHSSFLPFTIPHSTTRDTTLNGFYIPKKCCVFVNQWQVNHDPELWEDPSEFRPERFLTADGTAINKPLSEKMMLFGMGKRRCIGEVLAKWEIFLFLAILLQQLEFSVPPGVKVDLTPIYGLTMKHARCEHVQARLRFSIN
Procedure: as §2

[8] = tested on: patient-derived GSCs; test: GSC viability (CellTiter-Glo, 48 h); type: cell-based, human; set-up: %Survival of cells at day 0 (ATP levels): concentration or dose not given beside the values; %Survival (ATP levels): reference not given here; details: for %Survival (ATP levels): 1 μM, 48 h, individual replicates, listed as PU-HZ151; for %Survival of cells at day 0 (ATP levels): mean
[9] = tested on: normal neurons; type: cell-based; details: constant exposure of 72 hours

CC(C)(C)CNCCn1c(Sc2cc3c(cc2I)OCO3)nc2c(N)ncnc21 [Compound 85]
%Survival of cells at day 0 (ATP levels) [1]: -90%
chronic toxicity [2]: No
survival vs vehicle, log-rank P [3]: 0.21
survival vs vehicle, log-rank P [4]: 0.86
survival vs vehicle, log-rank P [5]: 0.0061
% PU-HZ151 remaining ([6]; 15 min): 79.8%
% PU-HZ151 remaining ([6]; 30 min): 66.9%
% PU-HZ151 remaining ([6]; 60 min): 50.9%
inhibition of PU-HZ151 metabolism ([6]; troleandomycin): 40%
% PU-HZ151 remaining ([7]; 15 min): 65.9%
% PU-HZ151 remaining ([7]; 30 min): 47.3%
% PU-HZ151 remaining ([7]; 60 min): 26.3%
inhibition of PU-HZ151 metabolism ([7]; furafylline): 11%
%Survival (ATP levels) ([8]; GSC #5): 31.63% and 18.68% and 4.03% and -9.88%
%Survival (ATP levels) ([8]; GSC #6): -14.27% and -27.68% and -18.96% and -23.61%
%Survival (ATP levels) ([8]; GSC #7): -51.27% and -33.16% and -43.96% and -19.32%
%Survival (ATP levels) ([8]; GSC #8): -82.2411% and -82.5656% and -44.1066% and -65.5015% and -65.6835% and -64.1317%
%Survival (ATP levels) ([8]; GSC #9): -79.4354% and -88.1536% and -74.4757% and -75.2771% and -91.5176% and -88.8402%
%Survival (ATP levels) ([8]; GSC #10): -43.1943% and -48.7032% and -76.5217% and -90.9365%
%Survival (ATP levels) ([8]; GSC #13): -9.18% and -20.17% and 1.94% and -5.51% and 23.62% and 22.18%
%Survival (ATP levels) ([8]; GSC #15): -58.61% and -73.45% and -36.64% and -48.92%
%Survival (ATP levels) ([8]; GSC #18): -64.4% and -60.27% and -57.05% and -50.97%
%Survival (ATP levels) ([8]; GSC #19): -11.96% and -35.33% and -40.35% and -2.66% and -9.81%
%Survival (ATP levels) ([8]; GSC #24): -81.22% and -79.53% and -20.38% and -28.49%
%Survival (ATP levels) ([8]; GSC #30): -95.74% and -99.62% and -58.98% and -67.84% and -66.79% and -85.07% and -94.89%
%Survival (ATP levels) ([8]; GSC #31): 36.5% and 32.49% and 59.07% and 79.62% and 33.55% and 9%
%Survival of cells at day 0 (ATP levels) ([8]; GSC# 5): 11.1%
%Survival of cells at day 0 (ATP levels) ([8]; GSC# 6): -21.1%
%Survival of cells at day 0 (ATP levels) ([8]; GSC# 8): -67.4%
%Survival of cells at day 0 (ATP levels) ([8]; GSC# 9): -82.9%
%Survival of cells at day 0 (ATP levels) ([8]; GSC# 10): -64.8%
%Survival of cells at day 0 (ATP levels) ([8]; GSC# 13): 2.1%
%Survival of cells at day 0 (ATP levels) ([8]; GSC# 15): -54.4%
%Survival of cells at day 0 (ATP levels) ([8]; GSC# 17): 16.9%
%Survival of cells at day 0 (ATP levels) ([8]; GSC# 18): -58.2%
%Survival of cells at day 0 (ATP levels) ([8]; GSC# 19): -20%
%Survival of cells at day 0 (ATP levels) ([8]; GSC# 24): -52.4%
%Survival of cells at day 0 (ATP levels) ([8]; GSC# 30): -81.3%
%Survival of cells at day 0 (ATP levels) ([8]; GSC# 31): 41.7%
concentration needed to induce toxicity [9]: 100 µM
